How the values were obtained:
[1] = test system: NQO1 specific enzyme activity in BEAS-2B cells; test: BEAS-2B NQO1 MTT Assay; assay type: cell-based; settings: NQO1 specific activity induction
In short: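 BEAS-2B cells exposed to compound for 48 h at 37 °C, 5% CO2, then lysed. NQO1 activity in crude lysate read kinetically by MTT cocktail absorbance at 570 nm over 30 min. pEC50 from ΔOD/min versus log concentration, 3-parameter fit.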

Keap1/NRF2 = target: T1, Keap1/NRF2 (Homo sapiens, UniProt Q14145); test: NRF2-Keap1 FP Assay (Kelch domain (321-609) of Keap1, TAMRA-labeled NRF2 ETGE peptide); assay type: binding; settings: Keap1 (321-609) 20 nM, Tamra labeled peptide 8 nM
T1 construct: Keap1 (321-609) is diluted to 40 nM (2×) in 1× assay buffer
T1 sequence (Q14145 321-609): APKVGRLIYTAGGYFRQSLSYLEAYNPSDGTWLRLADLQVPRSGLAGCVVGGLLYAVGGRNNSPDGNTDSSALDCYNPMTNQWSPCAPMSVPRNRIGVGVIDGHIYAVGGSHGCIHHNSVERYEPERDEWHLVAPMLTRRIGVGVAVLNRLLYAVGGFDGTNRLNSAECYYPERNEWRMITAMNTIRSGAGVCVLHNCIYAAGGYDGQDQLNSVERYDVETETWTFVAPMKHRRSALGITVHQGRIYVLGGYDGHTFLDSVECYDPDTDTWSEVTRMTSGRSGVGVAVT
In short: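 Fluorescence polarization competition: Keap1 Kelch (321-609) at 20 nM final and TAMRA-ETGE 16-mer peptide at 8 nM final with 3-fold compound dilutions, 1 h room temperature in Tris pH 8.0 buffer (NaCl, MgCl2, DTT, CHAPS, BSA). mP normalized to protein+peptide and peptide-alone controls; pIC50 by four-parameter fit.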

Compound `CCCCC1CCCN1C(=O)C1CCCC(c2cccc(-n3ncc(C(=O)O)c3C3CC3)c2)C1` (racemic) [Example 8c, 1-{3-[3-(2-Butylpyrrolidine-1-carbonyl)cyclohexyl]phenyl}-5-cyclopropyl-1H-pyrazole-4-carboxylic Acid] has an EC50 ([1]; Homo sapiens, BEAS-2B, 48 h) of 100 to 1000 nM and an IC50 (Keap1/NRF2) of 10 to 100 nM.
`CC(C)CCC1CCCN1C(=O)C1CCCC(c2cccc(-n3ncc(C(=O)O)c3C3CC3)c2)C1` (racemic) [Example 11, 5-Cyclopropyl-1-(3-{3-[2-(3-methylbutyl)pyrrolidine-1-carbonyl]cyclohexyl}phenyl)-1H-pyrazole-4-carboxylic Acid] gave an EC50 ([1]; Homo sapiens, BEAS-2B, 48 h) of 100 to 1000 nM and an IC50 (Keap1/NRF2) of 10 to 100 nM.
`O=C(O)c1cnn(-c2cccc(C3CCCC(C(=O)N4CCCC4C4CC4)C3)c2)c1C1CC1` (racemic) [Example 12, 5-cyclopropyl-1-{3-[3-(2-cyclopropylpyrrolidine-1-carbonyl)cyclohexyl]phenyl}-1H-pyrazole-4-carboxylic Acid] showed an EC50 ([1]; Homo sapiens, BEAS-2B, 48 h) of 100 to 1000 nM and an IC50 (Keap1/NRF2) of 10 to 100 nM.
In the case of `CC1(C)CCc2cnn([C@@H]3CCC[C@@H](c4cccc(-n5ncc(C(=O)O)c5C5CC5)c4)C3)c21` (racemic) [Example 23, 5-Cyclopropyl-1-(3-(t-3-(6,6-dimethyl-5,6-dihydrocyclopenta[c]pyrazol-1(4H)-yl)cyclohexyl)phenyl)-1H-pyrazole-4-carboxylic Acid], the EC50 ([1]; Homo sapiens, BEAS-2B, 48 h) is reported as 100 to 1000 nM and the IC50 (Keap1/NRF2) is reported as 1000 to 10000 nM.
Compound `CCOC[C@@H]1CCCN1C(=O)C1CCCC(c2cccc(-n3ncc(C(=O)O)c3C3CC3)c2)C1` (single isomer, unassigned) [Example 18g] has an EC50 ([1]; 48 hours) of 100 to 1000 nM and an IC50 (Keap1/NRF2) of 10 to 100 nM.
Compound `CCCC[C@@H]1CCCN1C(=O)[C@H]1CCC[C@@H](c2cccc(-n3ncc(C(=O)O)c3C3CC3)c2)C1` [Example 17f, 1-{3-[(1R,3S)-3-[(2R)-2-Butylpyrrolidine-1-carbonyl]cyclohexyl]phenyl}-5-cyclopropyl-1H-pyrazole-4-carboxylic Acid] has an EC50 ([1]; Homo sapiens, BEAS-2B, 48 h) of 10 to 100 nM and an IC50 (Keap1/NRF2) of 10 to 100 nM.
Compound `O=C(O)c1cnn(-c2cccc(C3=CC(C(=O)N4CCCCCC4)CCC3)c2)c1C1CC1` (stereo not drawn) [Example 19, 1-(5′-(Azepane-1-carbonyl)-2′,3′,4′,5′-tetrahydro-[1,1′-biphenyl]-3-yl)-5-cyclopropyl-1H-pyrazole-4-carboxylic Acid] has an EC50 ([1]; Homo sapiens, BEAS-2B, 48 h) of 1000 to 10000 nM and an IC50 (Keap1/NRF2) of 100 to 1000 nM.
Compound `CCCCC1CCc2cnn([C@@H]3CCC[C@@H](c4cccc(-n5ncc(C(=O)O)c5C5CC5)c4)C3)c21` (stereo partly drawn) [Example 38, 1-(3-((1,3-trans)-3-(6-Butyl-5,6-dihydrocyclopenta[c]pyrazol-1(4H)-yl)cyclohexyl)phenyl)-5-cyclopropyl-1H-pyrazole-4-carboxylic Acid] has an EC50 ([1]; 48 hours) of 100 to 1000 nM and an IC50 (Keap1/NRF2) of 1000 to 10000 nM.
In the case of `Cn1cc(C2CC2c2c(C(=O)O)cnn2-c2cccc([C@@H]3CCC[C@H](n4ncc5c4C(C)(C)CC5)C3)c2)nn1` (stereo partly drawn) [Example 39, 1-(3-((1R,3S)-3-(6,6-Dimethyl-5,6-dihydrocyclopenta[c]pyrazol-1(4H)-yl)cyclohexyl)phenyl)-5-(2-(1-methyl-1H-1,2,3-triazol-4-yl)cyclopropyl)-1H-pyrazole-4-carboxylic Acid], the EC50 ([1]; Homo sapiens, BEAS-2B, 48 h) is reported as 100 to 1000 nM and the IC50 (Keap1/NRF2) is reported as 10 to 100 nM.
With `Cn1cc(C2CC2c2c(C(=O)O)cnn2-c2cccc([C@H]3CCC[C@H](n4ncc5c4C(C)(C)CC5)C3)c2)nn1` (stereo partly drawn) [Example 40, 1-(3-((1,3-trans)-3-(6,6-Dimethyl-5,6-dihydrocyclopenta[c]pyrazol-1(4H)-yl)cyclohexyl)phenyl)-5-(2-(1-methyl-1H-1,2,3-triazol-4-yl)cyclopropyl)-1H-pyrazole-4-carboxylic Acid] the EC50 ([1]; Homo sapiens, BEAS-2B, 48 h) was 1000 to 10000 nM and the IC50 (Keap1/NRF2) was 10 to 100 nM.
`CCCCC1CCCC1N(C)C(=O)C1CCCC(c2cccc(-n3ncc(C(=O)O)c3C3CC3)c2)C1` (stereo not drawn) [Example 41, 1-(3-(3-((2-Butylcyclopentyl)(methyl)carbamoyl)cyclohexyl)phenyl)-5-cyclopropyl-1H-pyrazole-4-carboxylic Acid] showed an EC50 ([1]; Homo sapiens, BEAS-2B, 48 h) of 100 to 1000 nM and an IC50 (Keap1/NRF2) of 100 to 1000 nM.
In the case of `CCCCC1CCCN1C(=O)C1CCCC(c2cccc(-n3ncc(C(=O)O)c3C3CC3c3cn(C)nn3)c2)C1` (stereo not drawn) [Example 42, 1-(3-(3-(2-Butylpyrrolidine-1-carbonyl)cyclohexyl)phenyl)-5-(2-(1-methyl-1H-1,2,3-triazol-4-yl)cyclopropyl)-1H-pyrazole-4-carboxylic Acid], the EC50 ([1]; Homo sapiens, BEAS-2B, 48 h) is reported as 1000 to 10000 nM and the IC50 (Keap1/NRF2) is reported as 10 to 100 nM.

Reference: patent US10351530B2, “Arylcyclohexyl pyrazoles as NRF2 regulators” (GlaxoSmithKline Intellectual Property Development Limited, priority 2015, dated 2019)
